# Reference: US8859463B2, “Method for controlling noxious organisms” (Sumitomo Chemical Company, Limited, priority 2009, dated 2014)
# Legend:
# Assay type in all cases: in vivo
# [1] = system: Ipomoea hederacea var. integriuscula; assay: Herbicidal activity, soybean pot test, Example 58; settings: strobilurin seed treatment none, twelve days after sowing
# Procedure: (§1) In a plastic cup measuring 65 mm in inner diameter and 75 mm in height, 4.8 mg of a pyraclostrobin emulsifiable concentrate (emulsifiable concentrate containing 23.8% pyraclostrobin, manufactured by BASF under the trade name of Comet) and 12 soybean seeds were placed. The pyraclostrobin emulsifiable concentrate was adhered to the soybean seeds by shaking this plastic cup by hand. In the same manner, 13.2 mg of the pyraclostrobin emulsifiable concentrate was adhered to the soybean seeds. In the same manner, 4.8 mg of an azoxystrobin suspension (emulsifiable concentrate containing 22.9% azoxystrobin, manufactured by Syngenta under the trade name of Amistar) was adhered to the soybean seeds. In the same manner, 20.4 mg of an azoxystrobin suspension was adhered to the soybean seeds.
# (§2) A water diluted solution of a trifloxystrobin granular wettable powder (2.6%) was prepared by adding 52 mg of a trifloxystrobin granular wettable powder (granular wettable powder containing 50% trifloxystrobin, manufactured by Bayer Crop Science Inc. under the trade name of Flint) to 1 mL of desalted water. 51.6 mg of this water diluted solution and 12 soybean seeds were placed in the plastic cup. The water diluted solution of trifloxystrobin was adhered to the soybean seeds by shaking this plastic cup by hand. In the same manner, 199.2 mg of the water diluted solution of trifloxystrobin was adhered to the soybean seeds.
# (§3) A plastic pot measuring 194 mm in inner diameter and 176 mm in height was filled with the soil. In this pot, 2 soybean seeds were sown per 1 pot and 10 seeds of Ipomoea hederacea var. integriuscula and Senna obtusifolia were sown per 1 pot. On the day of sowing of the soybean seeds, after sowing the soybean seed, a flumioxazin granule (granule containing 0.25% flumioxazin, manufactured by Valent USA Corporation under the trade name of BroadStar) was uniformly scattered over a surface of the soil in the amount described in Tables 19 to 21 by hand.
# (§4) Twelve days after sowing the seeds of soybean, Ipomoea hederacea var. integriuscula and Senna obtusifolia, herbicidal activity was examined.
# [2] = system: Senna obtusifolia; assay: Herbicidal activity, soybean pot test, Example 58; settings: strobilurin seed treatment none, twelve days after sowing
# Procedure: as §1, §2, §3, §4
# [3] = system: Ipomoea lacunosa; assay: Herbicidal activity, corn pot test, Example 59; settings: pyraclostrobin none, flumioxazin 25 g/ha, twelve days after sowing
# Procedure: In a glass container measuring 60 mm in inner diameter and 20 mm in height, 8 mg of a pyraclostrobin emulsifiable concentrate (emulsifiable concentrate containing 23.8% pyraclostrobin, manufactured by BASF under the trade name of Comet) and 25 corn seeds were placed. After capping a glass container, the pyraclostrobin emulsifiable concentrate was adhered to the corn seeds by shaking the glass container by hand. In the same manner, 22 mg of the pyraclostrobin emulsifiable concentrate was adhered to the corn seeds.
# (§5) A plastic pot measuring 194 mm in inner diameter and 176 mm in height was filled with the soil. In this pot, 2 corn seeds were sown per 1 pot and 10 seeds of Ipomoea lacunosa were sown per 1 pot. On the day of sowing of the corn seeds, after sowing the corn seeds, a water diluted solution (24.5 mg of product/liter) of a flumioxazin granular wettable powder (granular wettable powder containing 51% flumioxazin, manufactured by Valent USA Corporation under the trade name of Valor SX), a water diluted solution (66.7 mg of product/liter) of a sulfentrazone granular wettable powder (granular wettable powder containing 75% sulfentrazone, manufactured by FMC Corporation under the trade name of Cover), a water diluted solution (15 mg/liter) of saflufenacil and a water diluted solution (100 mg/liter) of oxyfluorfen were uniformly sprayed over a surface of the soil in each amount described in Tables 22 to 25, using a sprayer. The water diluted solutions of saflufenacil and oxyfluorfen were prepared by dissolving each predetermined amount of saflufenacil and oxyfluorfen in acetone containing 2% (w/v) Tween 20 and diluting each solution with water so as to adjust the concentration of acetone to 10% by volume.
# Twelve days after sowing the seeds of corn and Ipomoea lacunose, herbicidal activity was examined.
# [4] = system: Ipomoea lacunosa; assay: Herbicidal activity, corn pot test, Example 76; settings: metalaxyl-M none, flumioxazin 25 g/ha, ten days after sowing
# Procedure: In a glass container measuring 60 mm in inner diameter and 20 mm in height, 15 mg of a metalaxyl-M emulsifiable concentrate (emulsifiable concentrate containing 33.3% metalaxyl-M, manufactured by Syngenta under the trade name of Apron XL) and 25 corn seeds were placed. After capping this glass container, the metalaxyl-M emulsifiable concentrate was adhered to the corn seeds by shaking the glass container by hand. In the same manner, 33 mg of the metalaxyl-M emulsifiable concentrate was adhered to the corn seeds.
# as §5, with “sulfentrazone” for “sulfentrazone,”, “28” for “22”, “31,” for “25,”
# Ten days after sowing the seeds of corn and Ipomoea lacunosa, herbicidal activity was examined.
structure (smiles),measurement,setting,value
"C#CCN1C(=O)COc2cc(F)c(N3C(=O)C4=C(CCCC4)C3=O)cc21 [Flumioxazin, flumioxazin]",Herbicidal activity Ipomoea hederacea var. integriuscula,[1]; flumioxazin 25 g/ha,25
same,Herbicidal activity Ipomoea hederacea var. integriuscula,[1]; flumioxazin 100 g/ha,85
same,Herbicidal activity Senna obtusifolia,[2]; flumioxazin 25 g/ha,20
same,Herbicidal activity Senna obtusifolia,[2]; flumioxazin 100 g/ha,45
same,Herbicidal activity,[3],40
same,Herbicidal activity,[4],40
